In patent US8389768B2, “Methods and compositions comprising novel cationic lipids” (The University of North Carolina at Chapel Hill, priority 2008, dated 2013):
Where two headings read alike, the source gives them in different places.

Legend:
H460 cells [1] = experiment: Chemosensitization study with cisplatin (MTT assay); format: cell-based, human; conditions: 48 h
Procedure: (§1) The cell viability values shown are the averages of triplicate experiments performed on the same day. […] Data=mean, n=3.
H460 cells (1×10^4 per well) were seeded into 12-well plates. Cells were incubated with different lipids at 10 μM and cisplatin (Sigma-Aldrich, St. Louis, Mo.) at different concentrations in serum-containing medium at 37° C. Cell viability was detected by the MTT assay 48 h later.
(§2) The cytotoxic effects of the three novel lipids at various concentrations were assessed in H460 cells after exposure to lipids 1-3 and DOTAP for 48 h using the MTT assay (FIG. 5A). […] To assess the chemo-sensitization ability of these lipids to anticancer drugs such as cisplatin, H460 cells were exposed to each of these agents for 48 h, alone and in combination with cisplatin.

ERK1/2 = ERK1/2 activation in dendritic cells; format: cell-based; conditions: low concentration (1 μM)
From the text: Total ERK1/2 expression remained unperturbed under all conditions.

H460 cells [2] = experiment: Flow cytometry with PI staining (apoptosis rate) after free lipid; format: cell-based, human; conditions: 10 μM lipid, 3 h
From the text: There was no statistically significant difference between the cytotoxicities of DSGLA and lipid 1.

B16F10 melanoma cells = experiment: Intracellular uptake of fluorescently-labeled siRNA in B16F10 cells; format: cell-based; conditions: 4 h, CY3-siRNA, lipid as cationic lipid of LPD-PEG / LPD-PEG-AA, vs DOTAP, AA vs no AA
Procedure: FIG. 9 presents fluorescence photographs of B16F10 cells after a 4 h treatment with 3′ CY3-labeled siRNA against an irrelevant target in LPD-PEG or LPD-PEG-AA nanoparticles formulated with the cationic lipid DSAA, DSGLA, or DOTAP.
We post inserted PEGylated lipids onto a LPD formulation, a nonviral vector developed in our lab as a nanocarrier for siRNA delivery, to increase the serum stability. In addition, we also tethered anisamide, a compound that specifically binds to the sigma receptor, to the distal end of PEG as a targeting ligand. […] Furthermore, the fluorescence signal in the cells treated with LPD-PEG-AA was much stronger than that of cells treated with LPD-PEG.

[3] = system: B16F10 cells (that stably express luciferase); experiment: In vitro luciferase gene silencing; format: cell-based; conditions: 24 h, 37° C., lipid as cationic lipid of the LPD formulation, vs DOTAP and DSGLA, AA vs no AA
From the text: We examined the gene silencing effect by siRNA in different compositions. […] Furthermore, the silencing effect in the cells treated with LPD-PEG-AA was much stronger than that of cells treated with LPD-PEG.

H460 cells [4] = experiment: In vitro transfection (pCMV-Luc luciferase reporter gene delivery); format: cell-based, human; conditions: presence of serum, cholesterol co-lipid 1:1, pCMV-Luc, lipid/DNA charge ratios 8:1 to 1:1
Procedure: RLU/pgram of protein was plotted against the lipid to DNA (+/−) charge ratios. The transfection efficiencies of the lipids were compared to that of commercially available N-(2,3-dioleoyloxy) propyl)-N,N,N-trimethylammonium chloride (DOTAP) and Lipofectamine™ 2000. The transfection values shown are the average of triplicate experiments performed on the same day.
H460 human large-cell lung carcinoma cells were seeded at a density of 20,000 cells per well in a 96-well plate 18-24 h prior to the transfection. Plasmid DNA (0.3 μg) was complexed with varying amounts of lipids (0.9-7.2 nmol) in plain RPMI medium (total volume of 100 μL) for 20 min. The charge ratios were varied from 1:1 to 8:1 (+/−) over these ranges of the lipids. The complexes were then added to the cells. After 3 h of incubation, 100 μL of RPMI with 20% FBS was added to the cells. The reporter gene activity was estimated after 24 h. The cells were washed twice with phosphate-buffered saline (PBS, 100 μL each) and lysed in 100 μL of lysis buffer (0.1 M Tris-HCl, 2 mM EDTA, 0.5% Triton X100, pH 7.8). Care was taken to ensure complete lysis. The cell lysate was then centrifuged at 14,000 rpm for 5 min. […] The protein concentration within the cellular lysates was quantified with the BSA standards from the Micro BSA™ Protein assay kit as supplied by Pierce Chemical Company (Rockford, Ill.). […]

H460 cells [5] = experiment: Cellular growth inhibition study (MTT assay)
Procedure: as §1
H460 cells (1×10^4 per well) were seeded into 12-well plates. Cells were treated with different lipids at various concentrations in serum-containing medium at 37° C. for 72 h. Cell viability was then detected by an MTT assay. Briefly, 100 μL of the MTT solution (15 mg in 50 mL of PBS) was added to each well, and the cells were incubated for 4 h at 37° C. The medium was removed, and the formazan crystals formed in the cells were dissolved in DMSO. Absorbance at 570 nm was measured in an Ultramark Microplate Imaging System. The data are expressed as the percent of viable cells compared to the untreated control cells.
as §2

With `CCCCCCCC/C=C\CCCCCCCC(=O)OCC(C[N+](C)(C)C)OC(=O)CCCCCCC/C=C\CCCCCCCC.[Cl-]` (stereo not drawn) [DOTAP] the “sensitization of cells to cisplatin” value (H460 cells [1]; lipid 10 μM) was “not”, the ERK1/2 activation (ERK1/2) was “increased ERK1/2 activation” and the “apoptosis rate (flow cytometry with PI staining)” value (H460 cells [2]) was 4.7±0.5%.
With `CCCCCCCCCCCCCCCCCC[N+](C)(CCCCCCCCCCCCCCCCCC)CCNC(=O)[C@@H](N)CCCNC(=N)N` [DSAA, N-methyl-N-(2-(arginoylamino)ethyl)-N,N-Dioctadecyl aminium chloride] the “uptake of fluorescently-labeled siRNA (fluorescence photographs)” value (B16F10 melanoma cells) was “much greater” and the “silencing effect of anti-luciferase siRNA” value [3] was “greater”.
`N.N.[Cl][Pt][Cl]` [cisplatin] was tested, and the IC50 (H460 cells [1]; cisplatin alone, read-out: IC50 of cisplatin) was roughly 12 µM and the IC50 (H460 cells [1]; with lipids 1-3 (10 μM), read-out: IC50 of cisplatin after treatment with lipids 1-3) was 3.5 µM.
“N,N-di-myristoyl-N-methyl-N-2[N′—(N^6-guanidino-L-lysinyl)]aminoethyl ammonium chloride [lipid 1]” was tested, and the “transfection efficiency (luciferase activity, RLU per μg protein)” value (H460 cells [4]) was “comparable to that of DOTAP and Lipofectamine 2000”, the EC50 (H460 cells [5]) was roughly 16 µM and the “apoptosis rate (flow cytometry with PI staining)” value (H460 cells [2]) was 10.4±3.0%.
In the case of “N,N-dimyristoyl-N-methyl-N-2[N′—(N2, N6-di-guanidino-L-lysinyl)]aminoethyl ammonium chloride [lipid 3]”, the “transfection efficiency (luciferase activity, RLU per μg protein)” value (H460 cells [4]) is reported as “comparable to that of DOTAP and Lipofectamine 2000” and the order of cytotoxicity (H460 cells [5]; 20 μM concentration of the corresponding lipids) is reported as “lipid 1>lipid 3>lipid 2>DOTAP”.
